Results on 3 compounds are retold here after patent US4195179A, “5-(Indol-3-ylmethylene)-1,3-dimethyl-2-methylamino-4-imidazolidinone” (Hoffmann-La Roche Inc., priority 1976, dated 1980).

A short description of one data set: acute toxicity (LD50). Particulars: mouse, in vivo.
Data set [1] has as its system tetrabenazine induced ptosis. In words: antagonism of tetrabenazine induced ptosis. The data set is classed as in vivo. As to conditions: Mus musculus, 1 h; oral, male mice; tetrabenazine methanesulfonate 100 mg/kg one hour after test compound; ptosis observed one hour later. The method, then: Groups of 10 mice each are administered tetrabenazine methanesulfonate at a dose of 100 mg/kg., one hour after oral administration of the test compound. One hour after tetrabenazine administration, each mouse is observed for the presence or absence of ptosis. An ED50 value for the antagonism of tetrabenazine induced ptosis is then determined.

SMILES strings stand for the structures.

The LD50 is the dose at which mortality reaches 50%. Usually ED50 stands for the midpoint of the dose-response relation. Low readings indicate an effect at a small dose, high ones a need for a large dose. As for `C/N=C1/N(C)C(=O)/C(=C\c2c[nH]c3ccccc23)N1C` [(E)-5-(indol-3-ylmethylene)-1,3-dimethyl-2-methylimino-4-imidazolidinone], the LD50 in “acute toxicity (LD50)” (ip) was 670 mg/kg; in “acute toxicity (LD50)” (po), 900 mg/kg. In addition, the ED50 in data set [1] was 5 mg/kg.
For `COc1ccc2c3c([nH]c2c1)C(C)=NCC3` [harmaline], the LD50 in the data set “acute toxicity (LD50)” (ip) is 120 mg/kg; in “acute toxicity (LD50)” (po), 380 mg/kg.
Consider `C#CCN(C)Cc1ccccc1` [pargyline], for which the 50% lethal dose (LD50) stood at 390 mg/kg in the data set “acute toxicity (LD50)” (ip) and 720 mg/kg in the data set “acute toxicity (LD50)” (po).
